Patent EP1492876B1, “CATIONIC AMPHIPHILES FOR INTRACELLULAR DELIVERY OF THERAPEUTIC MOLECULES, COMPOSITION, PROCESS AND USE THEREOF” (COUNCIL OF SCIENTIFIC AND INDUSTRIAL RESEARCH, priority 2002, dated 2003)

How the values were obtained:
DNA = experiment: Lipid:DNA interactions assay (ethidium bromide exclusion, fluorescence); assay type: binding; details: EtBr: pCMV β-gal complex titrated with lipid, TE buffer pH 8.0; Figure 2
Excerpt: Lipid:DNA Interactions Assay. Intercalation-induced fluorescence increase and competition with cationic lipids to bind to DNA has made Ethidium Bromide (EtBr) an excellent tool to study cationic lipid-DNA interactions. To assess the representative lipid:DNA interactions for the cationic lipids of the present invention, we have titrated the EtBr: pCMV β-gal complex with increasing amounts of cationic lipids 1-5.
The extent of Et.Br binding to the DNA was monitored by the changes in the fluorescence. EtBr fluorescence was monitored in Hitachi 4500 fluorimeter by setting the excitation wavelength at 518 nm and emission wavelength at 585 nm. To one ml of TE buffer (pH 8.0), 0.78 nmoles of DNA and 2.5 nmoles of EtBr were added. The change in fluorescence was monitored after adding small volumes of lipids 1-5 to the EtBr:DNA complex. Arbitrary fluorescence values were recorded after allowing sufficient time for equilibration. […] Percent fluorescence was calculated considering the fluorescence value in the absence of lipid as 100.

[1] = MTT based viability assay (toxicity assay); assay type: cell-based; details: monkey; COS-1 cells, 3:1 charge ratio
Method: Toxicity Assays. An MTT based viability assay was performed to assess the cytotoxicity of lipids 1-5 at various lipid:DNA charge ratios with COS-1 cells as described previously (Banerjee, R. et al. 1999). […] For lipids 1, 4 and 5 at a 3:1 charge ratio the toxicity varied from 15-25 % of the treated cells. The toxicity of lipid 2 (with shorter alkyl chains) may originate from its probable detergent-like cell-lysing activity.

COS-1 cells = experiment: Cell transfection (β-galactosidase reporter gene activity); assay type: cell-based; details: 0.15 µg plasmid DNA, lipid 0.05 - 4.3 nmoles, reporter gene activity after 48 h, Figure 1, compared with DMRIE
Method: Similar examples of plasmid include PGL-2 and PGL-3 of Promega and others.
Cell Transfection. COS-1 cells were seeded at a density of 15,000 cells/well in a 96-well plate eighteen hours before the transfection. 0.15 µg of plasmid DNA was complexed with varying amount of lipid (0.05 - 4.3 nmoles) in 13 µl of plain DMEM medium for 30 min. The charge ratios were varied from 0.1 : 1 to 9 : 1 (+/-) over this range of the lipid. The complex was diluted to 100 µl with plain DMEM and added to the wells. After 3 h of incubation, 100 µl of DMEM with 10 % FCS was added to the cells. The medium was changed to 10 % complete medium after 24 h and the reporter gene activity was estimated after 48 h. The cells were washed twice with PBS and lysed in 50 µl of lysis buffer (0.25 M Tris.HCl, pH 8.0 and 0.5% NP40). Care was taken to ensure complete lysis. The β-galactosidase activity per well was estimated by adding 50 µl of 2X substrate solution (1.33 mg/ml of ONPG, 0.2 M sodium phosphate, pH 7.15 and 2 mM magnesium chloride) to the lysate in a 96-well plate. Absorption at 405 nm was converted to β-galactosidase units by using calibration curve constructed with pure commercial β-galactosidase enzyme. The values of β-galactosidase units in replicate plates assayed on the same day varied by less than 30 %. […]

Row | Structure (SMILES) | lipid:DNA interaction (ability to exclude ethidium bromide from DNA) (DNA) | cytotoxicity [1] [%] | in vitro transfection efficiency (COS-1 cells)
1 | CCCCCCCCCCCC[N+]1(CCCCCCCCCCCC)CC(O)C(O)C1 (stereo not drawn) [compound 1] | interact poorly with DNA | 15 to 25 | –
2 | CCCCCCCCCCCCCC[N+]1(CCCCCCCCCCCCCC)CC(O)C(O)C1 (stereo not drawn) [compound 2] | interact with DNA equally well up to lipid:DNA ratio of 1.25 or so | – | comparable to or better than that of DMRIE
3 | CCCCCCCCCCCCCCCC[N+]1(CCCCCCCCCCCCCCCC)CC(O)C(O)C1 (stereo not drawn) [compound 3] | interact with DNA equally well up to lipid:DNA ratio of 1.25 or so | – | –
4 | CCCCCCCCCCCCCCCCCC[N+]1(CCCCCCCCCCCCCCCCCC)CC(O)C(O)C1 (stereo not drawn) [compound 4] | interact poorly with DNA | 15 to 25 | –
5 | CCCCCCCC/C=C\CCCCCCCC[N+]1(CCCCCCCCCCCCCCCCCC)CC(O)C(O)C1 (stereo not drawn) [compound 5] | interact poorly with DNA | 15 to 25 | –
